Laboratory results from patent US20110257208A1, “COMPOUNDS USEFUL AS FAAH MODULATORS AND USES THEREOF” (priority 2008, published 2011).

Target: T1, hFAAH (Homo sapiens, UniProt O00519)
T1 construct: expressed in transfected cells; host or cells: HEK293-TRex (Invitrogen) stably transfected with hFAAH in the pcDNA5-Tet-off vector, or T84 human colon epithelial cells (endogenous hFAAH); used as a microsomal preparation
T1 sequence (O00519 1-579): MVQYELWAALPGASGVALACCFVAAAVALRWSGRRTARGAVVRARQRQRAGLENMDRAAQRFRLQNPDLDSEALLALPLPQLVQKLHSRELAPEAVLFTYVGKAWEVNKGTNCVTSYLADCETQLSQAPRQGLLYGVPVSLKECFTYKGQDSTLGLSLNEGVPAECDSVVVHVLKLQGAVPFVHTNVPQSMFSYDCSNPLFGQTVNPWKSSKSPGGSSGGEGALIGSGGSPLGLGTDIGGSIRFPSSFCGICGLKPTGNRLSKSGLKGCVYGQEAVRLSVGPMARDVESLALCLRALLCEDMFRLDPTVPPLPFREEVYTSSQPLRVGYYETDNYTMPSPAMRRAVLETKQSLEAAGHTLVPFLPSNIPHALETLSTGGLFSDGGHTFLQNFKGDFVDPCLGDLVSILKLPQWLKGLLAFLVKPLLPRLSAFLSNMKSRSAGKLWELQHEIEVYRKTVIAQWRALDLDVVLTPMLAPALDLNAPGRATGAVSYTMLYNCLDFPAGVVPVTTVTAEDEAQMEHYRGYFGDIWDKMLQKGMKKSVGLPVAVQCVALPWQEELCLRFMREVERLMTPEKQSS
Assay: Fluorimetric assay with hFAAH microsomes (enzymatic, fluorescence based)
Format: biochemical
Conditions: compound at 1 uM, AA-AMC substrate
In short: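 Microsomes from T84 cells (endogenous hFAAH) or doxycycline-induced HEK293-TRex cells stably expressing hFAAH, 10 μg per well, in 50 mM HEPES pH 7.4, 1 mM EDTA, 1.4 mg/mL BSA with 2 μM AA-AMC. Kinetic fluorescence read (ex 355/em 460 nm, 275 cycles); activity as % inhibition, 7 concentrations in duplicate.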

Row | inhibition at 1 µM [%] | Structure (SMILES)
1 | > 50 | Cc1occc1CN1Cc2ncnc(Nc3cnc4ccccc4c3)c2C1 [Compound 96, [6-(2-Methyl-furan-3-ylmethyl)-6,7-dihydro-5H-pyrrolo[3,4-d]pyrimidin-4-yl]-quinolin-3-yl-amine]
2 | > 75 | CCc1nc(C)c(CN2Cc3ncnc(Nc4cnc5ccccc5c4)c3C2)s1 [Compound 97, [6-(2-Ethyl-4-methyl-thiazol-5-ylmethyl)-6,7-dihydro-5H-pyrrolo[3,4-d]pyrimidin-4-yl]-quinolin-3-yl-amine]
3 | > 75 | FC(F)(F)Oc1ccccc1CN1Cc2ncnc(Nc3cnc4ccccc4c3)c2C1 [Compound 98, Quinolin-3-yl-[6-(2-trifluoromethoxy-benzyl)-6,7-dihydro-5H-pyrrolo[3,4-d]pyrimidin-4-yl]-amine]
4 | > 75 | FC(F)(F)c1cccc(CN2Cc3ncnc(Nc4cnc5ccccc5c4)c3C2)c1 [Compound 99, Quinolin-3-yl-[6-(3-trifluoromethyl-benzyl)-6,7-dihydro-5H-pyrrolo[3,4-d]pyrimidin-4-yl]-amine]
5 | > 75 | CCOc1ccccc1CN1Cc2ncnc(Nc3cnc4ccccc4c3)c2C1 [Compound 100, [6-(2-Ethoxy-benzyl)-6,7-dihydro-5H-pyrrolo[3,4-d]pyrimidin-4-yl]-quinolin-3-yl-amine]
6 | > 75 | c1cc2c(c(CN3Cc4ncnc(Nc5cnc6ccccc6c5)c4C3)c1)OCC2 [Compound 101, [6-(2,3-Dihydro-benzofuran-7-ylmethyl)-6,7-dihydro-5H-pyrrolo[3,4-d]pyrimidin-4-yl]-quinolin-3-yl-amine]
7 | > 75 | CSc1ccccc1CN1Cc2ncnc(Nc3cnc4ccccc4c3)c2C1 [Compound 102, [6-(2-Methylsulfanyl-benzyl)-6,7-dihydro-5H-pyrrolo[3,4-d]pyrimidin-4-yl]-quinolin-3-yl-amine]
8 | > 75 | c1cc(CN2Cc3ncnc(Nc4cnc5ccccc5c4)c3C2)c2c(c1)OCO2 [Compound 103, (6-Benzo[1,3]dioxol-4-ylmethyl-6,7-dihydro-5H-pyrrolo[3,4-d]pyrimidin-4-yl)-quinolin-3-yl-amine]
9 | > 75 | FC(F)(F)Oc1cccc(CN2Cc3ncnc(Nc4cnc5ccccc5c4)c3C2)c1 [Compound 104, Quinolin-3-yl-[6-(3-trifluoromethoxy-benzyl)-6,7-dihydro-5H-pyrrolo[3,4-d]pyrimidin-4-yl]-amine]
10 | > 75 | FC(F)Oc1ccccc1CN1Cc2ncnc(Nc3cnc4ccccc4c3)c2C1 [Compound 105, [6-(2-Difluoromethoxy-benzyl)-6,7-dihydro-5H-pyrrolo[3,4-d]pyrimidin-4-yl]-quinolin-3-yl-amine]
11 | > 75 | COc1cccc(CN2Cc3ncnc(Nc4cnc5ccccc5c4)c3C2)c1 [Compound 106, [6-(3-Methoxy-benzyl)-6,7-dihydro-5H-pyrrolo[3,4-d]pyrimidin-4-yl]-quinolin-3-yl-amine]
12 | > 75 | Fc1cccc(CN2Cc3ncnc(Nc4cnc5ccccc5c4)c3C2)c1F [Compound 107, [6-(2,3-Difluoro-benzyl)-6,7-dihydro-5H-pyrrolo[3,4-d]pyrimidin-4-yl]-quinolin-3-yl-amine]
13 | > 50 | CCCOc1ccccc1CN1Cc2ncnc(Nc3cnc4ccccc4c3)c2C1 [Compound 108, [6-(2-Propoxy-benzyl)-6,7-dihydro-5H-pyrrolo[3,4-d]pyrimidin-4-yl]-quinolin-3-yl-amine]
14 | > 50 | CC(C)Oc1ccccc1CN1Cc2ncnc(Nc3cnc4ccccc4c3)c2C1 [Compound 109, [6-(2-Isopropoxy-benzyl)-6,7-dihydro-5H-pyrrolo[3,4-d]pyrimidin-4-yl]-quinolin-3-yl-amine]
15 | > 75 | c1ccc2ncc(Nc3ncnc4c3CN(Cc3cccc5cc[nH]c35)C4)cc2c1 [Compound 110, [6-(1H-Indol-7-ylmethyl)-6,7-dihydro-5H-pyrrolo[3,4-d]pyrimidin-4-yl]-quinolin-3-yl-amine]
16 | > 75 | c1ccc(C2CC2)c(CN2Cc3ncnc(Nc4cnc5ccccc5c4)c3C2)c1 [Compound 112, [6-(2-Cyclopropyl-benzyl)-6,7-dihydro-5H-pyrrolo[3,4-d]pyrimidin-4-yl]-quinolin-3-yl-amine]
